Measured values as given in US8722849B2, “Polypeptides” (Novo Nordisk A/S, priority 2011, dated 2014).
Starred links: 1 amine or outer side, 2 acyl side, 3 side chain; linkers in the order of their positions; H or OH if unused. Positions of bridges follow the written chain, without caps; N, C: chain ends. Residues, ends and D or L forms follow the SMILES beside them. *: point of attachment. C20 diacid = O=C(O)CCCCCCCCCCCCCCCCCCC(=O)*; C18 diacid = O=C(O)CCCCCCCCCCCCCCCCC(=O)*; γGlu = O=C(O)[C@H](CCC(=O)[*:2])N[*:1]

Assay: Assay (III) ThT fibrillation assay for physical stability
Type: physicochemical
Summary of the method: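 Freshly prepared formulations, pH-adjusted, with 1 μM ThT; four or eight replicates incubated at 37 °C under 960 rpm orbital shaking. Fluorescence (ex 444/em 485 nm) read every 20 min; […]. Peptide concentration measured by RP-HPLC before and after the run.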

Row | ThT pH 4.0 lag time (ThT fibrillation assay) [h] | ThT pH 4.0 lag time (h) (ThT fibrillation assay) | ThT pH 4.0 lag time (Table 8) [h] | SMILES
1 | >45 | >45 |  | CC[C@H](C)[C@H](NC(=O)[C@@H]1CCCN1C(=O)CNC(=O)[C@H](Cc1ccccc1)NC(=O)[C@H](CC(N)=O)NC(=O)[C@H](CC(N)=O)NC(=O)[C@H](CO)NC(=O)[C@H](CO)NC(=O)[C@H](Cc1c[nH]cn1)NC(=O)[C@H](Cc1c[nH]cn1)NC(=O)[C@H](CC(C)C)NC(=O)[C@H](Cc1ccccc1)NC(=O)[C@H](CCC(=O)O)NC(=O)[C@H](C)NC(=O)[C@H](CC(C)C)NC(=O)[C@H](CCCNC(=N)N)NC(=O)[C@H](CCC(N)=O)NC(=O)[C@@H](NC(=O)[C@H](C)NC(=O)[C@@H]1CSSC[C@H](NC(=O)[C@H](Cc2c[nH]cn2)NC(=O)[C@H](Cc2c[nH]cn2)NC(=O)[C@H](Cc2c[nH]cn2)NC(=O)CC[C@H](NC(=O)CCCCCCCCCCCCCCCCCCC(=O)O)C(=O)O)C(=O)N[C@@H](Cc2c[nH]cn2)C(=O)N[C@@H]([C@@H](C)O)C(=O)N[C@@H](C)C(=O)N[C@@H]([C@@H](C)O)C(=O)N1)[C@@H](C)O)C(=O)N[C@@H](CC(C)C)C(=O)N1CCC[C@H]1C(=O)N1CCC[C@H]1C(=O)N[C@H](C(=O)N[C@@H](CC(N)=O)C(=O)N[C@H](C(=O)NCC(=O)N[C@@H](CO)C(=O)N[C@@H](Cc1c[nH]cn1)C(=O)N[C@H](C(=O)N[C@@H](Cc1ccc(O)cc1)C(N)=O)[C@@H](C)O)C(C)C)[C@@H](C)O [Example 32, N-alpha-[(S)-4-Carboxy-4-(19-carboxynonadecanoylamino)butyryl]-His-His-[His1,His3,Glu14,His17,His35]-pramlintide] ({C20 diacid-γGlu}-HHHCHTATCATQRLAEFLHHSSNNFGPILPPTNVGSHTY-NH2; disulfide 4-9 (inferred))
2 | >45 | >45 |  | CC[C@H](C)[C@H](NC(=O)[C@@H]1CCCN1C(=O)CNC(=O)[C@H](Cc1ccccc1)NC(=O)[C@H](CC(N)=O)NC(=O)[C@H](CC(N)=O)NC(=O)[C@H](CO)NC(=O)[C@H](CO)NC(=O)[C@H](Cc1c[nH]cn1)NC(=O)[C@H](CCCNC(=N)N)NC(=O)[C@H](CC(C)C)NC(=O)[C@H](Cc1ccccc1)NC(=O)[C@H](CCC(=O)O)NC(=O)[C@H](C)NC(=O)[C@H](CC(C)C)NC(=O)[C@H](CCCNC(=N)N)NC(=O)[C@H](CCC(N)=O)NC(=O)[C@@H](NC(=O)[C@H](C)NC(=O)[C@@H]1CSSC[C@H](NC(=O)[C@H](CCCCN)NC(=O)CC[C@H](NC(=O)CCCCCCCCCCCCCCCCC(=O)O)C(=O)O)C(=O)N[C@@H](CC(N)=O)C(=O)N[C@@H]([C@@H](C)O)C(=O)N[C@@H](C)C(=O)N[C@@H]([C@@H](C)O)C(=O)N1)[C@@H](C)O)C(=O)N[C@@H](CC(C)C)C(=O)N1CCC[C@H]1C(=O)N1CCC[C@H]1C(=O)N[C@H](C(=O)N[C@@H](CC(N)=O)C(=O)N[C@H](C(=O)NCC(=O)N[C@@H](CO)C(=O)N[C@@H](Cc1c[nH]cn1)C(=O)N[C@H](C(=O)N[C@@H](Cc1ccc(O)cc1)C(N)=O)[C@@H](C)O)C(C)C)[C@@H](C)O [Example 61, N-alpha-[(S)-4-Carboxy-4-(17-carboxyheptadecanoylamino)butyryl]-[Glu14,Arg17,His35]-pramlintide] ({C18 diacid-γGlu}-KCNTATCATQRLAEFLRHSSNNFGPILPPTNVGSHTY-NH2; disulfide 2-7 (inferred))
3 | >45 | >45 | >45 | CC(C)C[C@H](NC(=O)[C@H](CCCNC(=N)N)NC(=O)[C@H](CCC(N)=O)NC(=O)[C@@H](NC(=O)[C@H](C)NC(=O)[C@@H]1CSSC[C@H](NC(=O)[C@H](CCCCN)NC(=O)CC[C@H](NC(=O)CCCCCCCCCCCCCCCCCCC(=O)O)C(=O)O)C(=O)N[C@@H](CC(N)=O)C(=O)N[C@@H]([C@@H](C)O)C(=O)N[C@@H](C)C(=O)N[C@@H]([C@@H](C)O)C(=O)N1)[C@@H](C)O)C(=O)N[C@@H](C)C(=O)N[C@@H](CCC(=O)O)C(=O)N[C@@H](Cc1ccccc1)C(=O)N[C@@H](CC(C)C)C(=O)N[C@@H](CCCNC(=N)N)C(=O)N[C@@H](Cc1c[nH]cn1)C(=O)N[C@@H](CO)C(=O)N[C@@H](CO)C(=O)N[C@@H](CC(N)=O)C(=O)N[C@@H](CC(N)=O)C(=O)N[C@@H](Cc1ccccc1)C(=O)NCC(=O)N[C@@H](C)C(=O)N1CCC[C@H]1C(=O)N[C@@H](CC(C)C)C(=O)N[C@@H](CO)C(=O)N[C@@H](CO)C(=O)N[C@H](C(=O)N[C@@H](CC(N)=O)C(=O)N[C@H](C(=O)NCC(=O)N[C@@H](CO)C(=O)N[C@@H](Cc1c[nH]cn1)C(=O)N[C@H](C(=O)N[C@@H](Cc1ccc(O)cc1)C(N)=O)[C@@H](C)O)C(C)C)[C@@H](C)O [Example 65, N-alpha-[(S)-4-Carboxy-4-(19-carboxynonadecanoylamino)butyryl]-[Glu14,Arg17,Ala25,Pro26,Ser28,Ser29,His35]-pramlintide] ({C20 diacid-γGlu}-KCNTATCATQRLAEFLRHSSNNFGAPLSSTNVGSHTY-NH2; disulfide 2-7 (inferred); C-terminus assumed)
4 | >45 | >45 |  | CC[C@H](C)[C@H](NC(=O)[C@@H]1CCCN1C(=O)CNC(=O)[C@H](Cc1ccccc1)NC(=O)[C@H](CC(N)=O)NC(=O)[C@H](CC(N)=O)NC(=O)[C@H](CO)NC(=O)[C@H](CO)NC(=O)[C@H](Cc1c[nH]cn1)NC(=O)[C@H](Cc1c[nH]cn1)NC(=O)[C@H](CC(C)C)NC(=O)[C@H](Cc1ccccc1)NC(=O)[C@H](CCC(=O)O)NC(=O)[C@H](C)NC(=O)[C@H](CC(C)C)NC(=O)[C@H](CCCNC(=N)N)NC(=O)[C@H](CCC(N)=O)NC(=O)[C@@H](NC(=O)[C@H](C)NC(=O)[C@@H]1CSSC[C@H](NC(=O)[C@H](CCCCN)NC(=O)[C@H](Cc2c[nH]cn2)NC(=O)CC[C@H](NC(=O)CCCCCCCCCCCCCCCCCCC(=O)O)C(=O)O)C(=O)N[C@@H](CC(N)=O)C(=O)N[C@@H]([C@@H](C)O)C(=O)N[C@@H](C)C(=O)N[C@@H]([C@@H](C)O)C(=O)N1)[C@@H](C)O)C(=O)N[C@@H](CC(C)C)C(=O)N1CCC[C@H]1C(=O)N1CCC[C@H]1C(=O)N[C@H](C(=O)N[C@@H](CC(N)=O)C(=O)N[C@H](C(=O)NCC(=O)N[C@@H](CO)C(=O)N[C@@H](Cc1c[nH]cn1)C(=O)N[C@H](C(=O)N[C@@H](Cc1ccc(O)cc1)C(N)=O)[C@@H](C)O)C(C)C)[C@@H](C)O [Example 66, N-alpha-[(S)-4-Carboxy-4-(19-carboxynonadecanoylamino)butyryl]-His-[Glu14,His17,His35]-pramlintide] ({C20 diacid-γGlu}-HKCNTATCATQRLAEFLHHSSNNFGPILPPTNVGSHTY-NH2; disulfide 3-8 (inferred); C-terminus assumed)
